# From patent publication US9994616B2, “c-Met protein agonist” (The University of Tokyo, priority 2013, dated 2018)
# Like-named read-outs stand apart in the source and are kept apart here. Where a SMILES comes first, the peptide text is derived from it. Bridges are numbered along the chain shown (N, C = ends). Roman numbers before positions name the chains, in order. Where no end group is shown, it is not given here. [ ]: non-standard residue; d: D form. NMeR = CN[C@@H](CCCNC(=N)N)C(=O)O; NMeT = CN[C@H](C(=O)O)[C@@H](C)O; NMeN = CN[C@@H](CC(N)=O)C(=O)O; NMeC = CN[C@@H](CS)C(=O)O; βAla = NCCC(=O)O
# Assays:
# [1] = biological target: c-Met-Fc (Homo sapiens, UniProt P08581); assay: Binding ability by surface plasmon resonance (SPR, Biacore); conditions: for kon: read-out: ka
# Sequence of c-Met-Fc (P08581 with tags, fused parts or gaps limits assumed): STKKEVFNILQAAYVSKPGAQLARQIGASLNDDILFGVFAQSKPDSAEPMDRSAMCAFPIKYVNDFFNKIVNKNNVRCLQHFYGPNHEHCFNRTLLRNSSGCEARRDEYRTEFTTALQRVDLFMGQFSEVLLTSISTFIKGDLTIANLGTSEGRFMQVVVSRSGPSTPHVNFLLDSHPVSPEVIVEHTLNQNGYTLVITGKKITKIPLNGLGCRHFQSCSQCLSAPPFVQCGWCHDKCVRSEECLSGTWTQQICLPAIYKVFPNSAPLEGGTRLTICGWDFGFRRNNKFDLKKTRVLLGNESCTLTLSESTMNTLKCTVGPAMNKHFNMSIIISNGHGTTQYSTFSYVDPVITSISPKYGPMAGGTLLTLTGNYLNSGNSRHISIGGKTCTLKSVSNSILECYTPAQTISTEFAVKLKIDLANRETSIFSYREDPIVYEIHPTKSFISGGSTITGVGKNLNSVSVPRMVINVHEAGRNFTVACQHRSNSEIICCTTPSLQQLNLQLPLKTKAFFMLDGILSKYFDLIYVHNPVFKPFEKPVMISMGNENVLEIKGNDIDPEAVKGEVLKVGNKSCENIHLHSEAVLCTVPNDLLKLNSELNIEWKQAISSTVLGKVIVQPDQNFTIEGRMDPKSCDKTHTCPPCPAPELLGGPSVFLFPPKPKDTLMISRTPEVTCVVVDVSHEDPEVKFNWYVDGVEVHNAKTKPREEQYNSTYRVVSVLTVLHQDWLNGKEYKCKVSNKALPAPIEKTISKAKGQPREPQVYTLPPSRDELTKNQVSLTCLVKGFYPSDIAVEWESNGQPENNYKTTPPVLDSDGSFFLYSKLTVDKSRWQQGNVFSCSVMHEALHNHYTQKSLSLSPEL
# Sequence of c-Met-Fc (P08581 25-307 limits assumed): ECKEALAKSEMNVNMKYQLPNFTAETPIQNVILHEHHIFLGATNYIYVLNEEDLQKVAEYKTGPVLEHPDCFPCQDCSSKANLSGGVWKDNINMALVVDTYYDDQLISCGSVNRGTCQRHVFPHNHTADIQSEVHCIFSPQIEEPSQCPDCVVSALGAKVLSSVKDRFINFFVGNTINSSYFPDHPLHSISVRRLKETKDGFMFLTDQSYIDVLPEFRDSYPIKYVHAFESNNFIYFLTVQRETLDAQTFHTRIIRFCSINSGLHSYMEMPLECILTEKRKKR
# Description: Binding ability of the thioether macrocyclic peptide was evaluated by SPR measurement using Biacore (GE Healthcare).
# As a sensor chip, Sensor Chip CM5 was used and an anti-IgG antibody was immobilized on a measurement lane and a control lane by using Human Antibody Capture Kit.
# On the measurement lane was immobilized c-Met-Fc, while on the control lane was immobilized Fc protein.
# As a running buffer, HBS-EP+ buffer containing 0.1% DMSO was used and a dissociation constant of the thioether macrocyclic peptide was calculated at 5 different concentrations by using the single-kinetics method.
# [2] = biological target: T1, c-Met (Homo sapiens, UniProt P08581); assay: Activity of dimeric peptide by ELISA (c-Met phosphorylation level in EHMES-1 cells); format: cell-based; conditions: for Activity (c-Met phosphorylation level by ELISA): Table 12, EHMES-1 cells, 10 minutes stimulation; for c-Met phosphorylation: Table 13
# T1 construct: endogenous in cells; host or cells: EHMES-1 (human mesothelioma)
# T1 sequence (P08581 25-1390): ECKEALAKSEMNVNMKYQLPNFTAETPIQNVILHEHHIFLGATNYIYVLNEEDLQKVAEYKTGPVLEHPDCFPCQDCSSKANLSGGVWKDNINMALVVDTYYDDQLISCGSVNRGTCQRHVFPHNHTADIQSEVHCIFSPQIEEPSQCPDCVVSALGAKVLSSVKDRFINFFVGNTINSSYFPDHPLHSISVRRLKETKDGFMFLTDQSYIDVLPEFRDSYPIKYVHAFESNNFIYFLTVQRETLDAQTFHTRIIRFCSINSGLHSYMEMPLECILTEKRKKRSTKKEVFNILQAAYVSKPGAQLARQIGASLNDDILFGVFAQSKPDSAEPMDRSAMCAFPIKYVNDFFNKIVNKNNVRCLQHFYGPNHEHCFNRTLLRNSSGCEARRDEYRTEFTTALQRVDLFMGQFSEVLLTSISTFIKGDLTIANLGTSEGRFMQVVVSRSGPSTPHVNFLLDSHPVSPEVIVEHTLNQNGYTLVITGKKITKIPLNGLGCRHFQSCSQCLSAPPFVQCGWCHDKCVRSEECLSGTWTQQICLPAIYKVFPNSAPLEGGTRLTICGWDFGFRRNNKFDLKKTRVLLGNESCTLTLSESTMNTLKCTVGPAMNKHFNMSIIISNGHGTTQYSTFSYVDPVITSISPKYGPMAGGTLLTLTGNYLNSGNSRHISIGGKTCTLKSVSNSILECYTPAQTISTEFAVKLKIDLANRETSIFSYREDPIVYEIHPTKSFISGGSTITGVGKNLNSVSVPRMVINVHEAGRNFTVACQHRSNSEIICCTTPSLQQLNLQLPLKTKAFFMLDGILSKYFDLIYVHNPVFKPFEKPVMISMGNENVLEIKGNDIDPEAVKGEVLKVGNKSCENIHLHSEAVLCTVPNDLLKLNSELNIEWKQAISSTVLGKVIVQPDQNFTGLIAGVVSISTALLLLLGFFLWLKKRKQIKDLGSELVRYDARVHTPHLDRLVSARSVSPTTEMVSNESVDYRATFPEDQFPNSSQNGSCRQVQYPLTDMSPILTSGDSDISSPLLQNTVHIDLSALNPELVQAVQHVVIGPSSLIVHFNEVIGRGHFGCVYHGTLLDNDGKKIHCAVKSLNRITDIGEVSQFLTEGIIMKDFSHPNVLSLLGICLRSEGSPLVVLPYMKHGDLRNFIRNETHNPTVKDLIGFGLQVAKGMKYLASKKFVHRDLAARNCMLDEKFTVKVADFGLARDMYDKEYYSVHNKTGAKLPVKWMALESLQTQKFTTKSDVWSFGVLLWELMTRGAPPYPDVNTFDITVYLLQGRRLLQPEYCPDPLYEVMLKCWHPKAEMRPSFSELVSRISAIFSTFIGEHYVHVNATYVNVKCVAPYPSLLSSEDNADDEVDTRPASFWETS
# Description: Each dimeric peptide was added to human EHMES-1 cells and the mixture was incubated for 10 minutes to stimulate the cells.
# As a control experiment, a recombinant human HGF protein was added and the mixture was incubated for 10 minutes to stimulate cells.
# A phosphorylation level of c-Met was quantitatively analyzed using ELISA.
# [3] = tested on: human HuCCT1 cells; assay: Cell migration of HuCCT1 cells on pore-containing plate; format: cell-based; conditions: Table 13
# Description: In addition, human HuCCT1 cells were seeded on a pore-containing plate and cultured in a medium mixed with each of the dimeric peptides to evaluate activation of cell migration ability.
# [4] = Stability of thioether macrocyclic peptide in human serum pool (LC-MS); format: in vitro ADME; conditions: for remaining at 4 h, 1 μM: Table 9; for remaining at 4 h, 1 μM / remaining at 1 h, 1 μM: human serum pool; for remaining at 4 h, 1 μM / Stability in human serum (undegraded portion/time) / remaining at 1 h, 1 μM: 37° C.; for Stability in human serum (undegraded portion/time): Table 10; for Stability in serum (in words): human serum; for remaining at 1 h, 1 μM: Table 8
# Description: A DMSO solution of the thioether macrocyclic peptide to be evaluated was dissolved in a human serum pool to give a concentration of 1 μM. The human serum pool containing the thioether macrocyclic peptide thus prepared was incubated at 37° C.
# After an elapse of the evaluation time, the human serum pool containing the thioether macrocyclic peptide was placed on ice and a peptide serving as an internal standard was added and mixed to give a concentration of 1 μM. The resulting mixture was added to a solid-phase extraction column (Hyper Sep SPE column, Thermo Scientific), washed with a 5% aqueous acetonitrile solution containing 0.1% TFA, and then purified by eluting with a 70% aqueous acetonitrile solution containing 0.1% TFA.
# The molecular weight of the purified product was analyzed using LC-MS and the cleavage site in the serum was identified. In addition, the thioether macrocyclic peptide which had remained without being cleaved was quantitatively determined by comparing an amount relative to the internal standard at every incubation time.
# [5] = Table 11, monomer and dimeric peptides
molecule,measurement,setting,value
"D5-4 Bis-MAL-PEG11: dimeric peptide: two D5-4 macrocycles linked through C-terminal Cys by Bis-MAL-PEG11 linker (peptide 1 {CH2CO}-[dY]WYYAWDQTYKAFPCG; peptide 2 {CH2CO}-[dY]WYYAWDQTYKAFPCG; thioether I:N-I:15, II:N-II:15; not fully specified (C-terminus); also: dimer: two chains joined by Bis-MAL-PEG11 through an added C-terminal Cys not in the letters)",ka,[1]; [5],5.3 10^6 M^−1s^−1
same,kd,[1]; [5],1.1 10^−2 s^−1
same,Activity (c-Met phosphorylation level by ELISA),[2],High
same,c-Met phosphorylation,[2],Promote
same,Cell migration,[3],Activate
D4-3scr BMH: dimer of the negative control peptide D4-3scr with BMH linker ({CH2CO}-YERVNHLFRNQTWDRCGC; thioether N-16 (inferred); also: dimer of D4-3scr with BMH linker) [reference compound],KD,[1]; [5],Not binding
same,Activity (c-Met phosphorylation level by ELISA),[2],No
same,c-Met phosphorylation,[2],Not promote
same,Cell migration,[3],Not activate
CC(C)C[C@@H]1NC(=O)[C@H](CC(N)=O)NC(=O)[C@H](Cc2c[nH]c3ccccc23)NC(=O)[C@H](C(C)C)NC(=O)[C@H](CCC(=O)O)NC(=O)[C@H](Cc2c[nH]cn2)NC(=O)[C@H]([C@@H](C)O)NC(=O)[C@H](CCCNC(=N)N)NC(=O)[C@H](CCCNC(=N)N)N(C)C(=O)[C@H](CC(N)=O)NC(=O)[C@H](Cc2ccccc2)NC(=O)[C@H](CCC(N)=O)NC(=O)[C@H](CCCNC(=N)N)NC(=O)[C@@H](Cc2ccc(O)cc2)NC(=O)CSC[C@@H](C(=O)NCC(N)=O)N(C)C(=O)[C@H](CC(=O)O)NC1=O [Peptide D4-3NMe] ({CH2CO}-[dY]RQFN[NMeR]RTHEVWNLD[NMeC]G-NH2; thioether N-16),Kd,"[1]; Table 9, c-Met-Fc",5.2 nM
same,kon,"[1]; Table 9, c-Met-Fc",390000 M⁻¹ s⁻¹
same,"remaining at 4 h, 1 μM",[4]; 4 h,63%
same,Stability in human serum (undegraded portion/time),[4]; 4 h,67%/4 h
same,Stability in serum (in words),[4],considerably excellent
CC(C)C[C@@H]1NC(=O)[C@H](CC(N)=O)NC(=O)[C@H](Cc2c[nH]c3ccccc23)NC(=O)[C@H](C(C)C)NC(=O)[C@H](CCC(=O)O)NC(=O)[C@H](Cc2c[nH]cn2)NC(=O)[C@H]([C@@H](C)O)NC(=O)[C@H](CCCNC(=N)N)NC(=O)[C@H](CCCNC(=N)N)NC(=O)[C@H](CC(N)=O)NC(=O)[C@H](Cc2ccccc2)NC(=O)[C@H](CCC(N)=O)NC(=O)[C@H](CCCNC(=N)N)N(C)C(=O)[C@@H](Cc2ccc(O)cc2)NC(=O)CSC[C@@H](C(=O)NCC(N)=O)NC(=O)[C@H](CC(=O)O)NC1=O [Peptide N2] ({CH2CO}-[dY][NMeR]QFNRRTHEVWNLDCG-NH2; thioether N-16; C-terminus assumed),kd,"[1]; Table 8, c-Met-Fc",1.0 10^−2 s^−1
same,kon,"[1]; Table 8, c-Met-Fc",710000 M⁻¹ s⁻¹
same,"remaining at 1 h, 1 μM",[4],5.4%
CC(C)C[C@@H]1NC(=O)[C@H](CC(N)=O)NC(=O)[C@H](Cc2c[nH]c3ccccc23)NC(=O)[C@H](C(C)C)NC(=O)[C@H](CCC(=O)O)NC(=O)[C@H](Cc2c[nH]cn2)NC(=O)[C@H]([C@@H](C)O)NC(=O)[C@H](CCCNC(=N)N)NC(=O)[C@H](CCCNC(=N)N)N(C)C(=O)[C@H](CC(N)=O)NC(=O)[C@H](Cc2ccccc2)NC(=O)[C@H](CCC(N)=O)NC(=O)[C@H](CCCNC(=N)N)NC(=O)[C@@H](Cc2ccc(O)cc2)NC(=O)CSC[C@@H](C(=O)NCC(N)=O)NC(=O)[C@H](CC(=O)O)NC1=O [Peptide N6] ({CH2CO}-[dY]RQFN[NMeR]RTHEVWNLDCG-NH2; thioether N-16; C-terminus assumed),Binding ability (in words),[1],do not show marked deterioration
same,kd,"[1]; Table 8, c-Met-Fc",0.41 10^−2 s^−1
same,kon,"[1]; Table 8, c-Met-Fc",120000 M⁻¹ s⁻¹
same,ka,"[1]; Table 9, c-Met-Fc",1.2 10^5 M^−1s^−1
same,kd,"[1]; Table 9, c-Met-Fc",0.41 10^−2s^−1
same,"remaining at 1 h, 1 μM",[4],85%
same,"remaining at 4 h, 1 μM",[4]; 4 h,67%
same,Stability in serum (in words),[4],drastically improved
CC[C@H](C)[C@@H]1NC(=O)[C@H](Cc2ccc(O)cc2)NC(=O)CSC[C@@H](C(=O)NCC(N)=O)NC(=O)[C@H]([C@@H](C)O)NC(=O)[C@H]([C@@H](C)CC)NC(=O)[C@H](Cc2ccccc2)NC(=O)[C@H](CCCNC(=N)N)NC(=O)[C@H](Cc2c[nH]c3ccccc23)NC(=O)[C@H](CC(N)=O)NC(=O)[C@@H]2CCCN2C(=O)[C@H](CO)NC(=O)[C@H](CC(N)=O)NC(=O)[C@H](Cc2ccccc2)NC(=O)[C@H](CCC(=O)O)NC(=O)[C@H](CC(N)=O)NC(=O)[C@H](Cc2c[nH]c3ccccc23)NC(=O)[C@H](CO)NC1=O [Peptide L5-2] ({CH2CO}-YISWNEFNSPNWRFITCG-NH2; thioether N-17),Kd,"[1]; Table 10, c-Met-Fc",5.4 nM
same,kon,"[1]; Table 10, c-Met-Fc",2.3e+06 M⁻¹ s⁻¹
same,Stability in human serum (undegraded portion/time),[4]; 2 h,71%/2 h
"L5-2 Bis-MAL-PEG3: dimeric peptide: two L5-2 macrocycles linked through C-terminal Cys by Bis-MAL-PEG3 linker ({CH2CO}-YISWNEFNSPNWRFITCG[βAla]C-NH2; thioether N-17; not fully specified (residue 20); also: dimer: two copies joined by Bis-MAL-PEG3, linker at 20 via Bis-MAL-PEG3, other end not in the chain)",ka,[1]; [5],0.22 10^6 M^−1s^−1
same,kd,[1]; [5],0.042 10^−2 s^−1
same,Activity (c-Met phosphorylation level by ELISA),[2],High
same,c-Met phosphorylation,[2],Promote
same,Cell migration,[3],Activate
CC(C)C[C@@H]1NC(=O)[C@H](CC(N)=O)NC(=O)[C@H](Cc2c[nH]c3ccccc23)NC(=O)[C@H](C(C)C)NC(=O)[C@H](CCC(=O)O)NC(=O)[C@H](Cc2c[nH]cn2)NC(=O)[C@H]([C@@H](C)O)NC(=O)[C@H](CCCNC(=N)N)NC(=O)[C@H](CCCNC(=N)N)NC(=O)[C@H](CC(N)=O)NC(=O)[C@H](Cc2ccccc2)NC(=O)[C@H](CCC(N)=O)NC(=O)[C@H](CCCNC(=N)N)NC(=O)[C@@H](Cc2ccc(O)cc2)NC(=O)CSC[C@@H](C(=O)NCC(N)=O)N(C)C(=O)[C@H](CC(=O)O)NC1=O [Peptide N16] ({CH2CO}-[dY]RQFNRRTHEVWNLD[NMeC]G-NH2; thioether N-16; C-terminus assumed),kd,"[1]; Table 8, c-Met-Fc",1.0 10^−2 s^−1
same,kon,"[1]; Table 8, c-Met-Fc",980000 M⁻¹ s⁻¹
same,ka,"[1]; Table 9, c-Met-Fc",9.8 10^5 M^−1s^−1
same,kd,"[1]; Table 9, c-Met-Fc",1.0 10^−2s^−1
same,"remaining at 1 h, 1 μM",[4],12%
same,"remaining at 4 h, 1 μM",[4]; 4 h,< 12%
CC(C)C[C@@H]1NC(=O)[C@H](CC(N)=O)NC(=O)[C@H](Cc2c[nH]c3ccccc23)NC(=O)[C@H](C(C)C)NC(=O)[C@H](CCC(=O)O)NC(=O)[C@H](Cc2c[nH]cn2)NC(=O)[C@H]([C@@H](C)O)NC(=O)[C@H](CCCNC(=N)N)NC(=O)[C@H](CCCNC(=N)N)NC(=O)[C@H](CC(N)=O)NC(=O)[C@H](Cc2ccccc2)NC(=O)[C@H](CCC(N)=O)NC(=O)[C@H](CCCNC(=N)N)NC(=O)[C@@H](Cc2ccc(O)cc2)NC(=O)CSC[C@@H](C(=O)NCC(N)=O)NC(=O)[C@H](CC(=O)O)NC1=O [Peptide D4-3] ({CH2CO}-[dY]RQFNRRTHEVWNLDCG-NH2; thioether N-16; N-terminus and C-terminus assumed),kon,"[1]; Table 8, c-Met-Fc",1.3e+06 M⁻¹ s⁻¹
same,kon,"[1]; Table 10, c-Met-Fc",2.4e+06 M⁻¹ s⁻¹
same,"remaining at 1 h, 1 μM",[4],3.7%
same,"remaining at 4 h, 1 μM",[4]; 4 h,< 3.7%
same,Stability in human serum (undegraded portion/time),[4]; 2 h,6%/2 h
CC(C)C[C@@H]1NC(=O)[C@H](CC(N)=O)NC(=O)[C@H](Cc2c[nH]c3ccccc23)NC(=O)[C@H](C(C)C)NC(=O)[C@H](CCC(=O)O)NC(=O)[C@H](Cc2c[nH]cn2)NC(=O)[C@H]([C@@H](C)O)N(C)C(=O)[C@H](CCCNC(=N)N)NC(=O)[C@H](CCCNC(=N)N)NC(=O)[C@H](CC(N)=O)NC(=O)[C@H](Cc2ccccc2)NC(=O)[C@H](CCC(N)=O)NC(=O)[C@H](CCCNC(=N)N)NC(=O)[C@@H](Cc2ccc(O)cc2)NC(=O)CSC[C@@H](C(=O)NCC(N)=O)NC(=O)[C@H](CC(=O)O)NC1=O [Peptide N8] ({CH2CO}-[dY]RQFNRR[NMeT]HEVWNLDCG-NH2; thioether N-16; C-terminus assumed),kon,"[1]; Table 8, c-Met-Fc",27000 M⁻¹ s⁻¹
same,"remaining at 1 h, 1 μM",[4],81%
same,Stability in serum (in words),[4],drastically improved
CC(C)C[C@@H]1NC(=O)[C@H](CC(N)=O)N(C)C(=O)[C@H](Cc2c[nH]c3ccccc23)NC(=O)[C@H](C(C)C)NC(=O)[C@H](CCC(=O)O)NC(=O)[C@H](Cc2c[nH]cn2)NC(=O)[C@H]([C@@H](C)O)NC(=O)[C@H](CCCNC(=N)N)NC(=O)[C@H](CCCNC(=N)N)NC(=O)[C@H](CC(N)=O)NC(=O)[C@H](Cc2ccccc2)NC(=O)[C@H](CCC(N)=O)NC(=O)[C@H](CCCNC(=N)N)NC(=O)[C@@H](Cc2ccc(O)cc2)NC(=O)CSC[C@@H](C(=O)NCC(N)=O)NC(=O)[C@H](CC(=O)O)NC1=O [Peptide N13] ({CH2CO}-[dY]RQFNRRTHEVW[NMeN]LDCG-NH2; thioether N-16; C-terminus assumed),kon,"[1]; Table 8, c-Met-Fc",78000 M⁻¹ s⁻¹
same,"remaining at 1 h, 1 μM",[4],4.5%
